Results: US20240228488A1 (TAKEDA PHARMACEUTICAL COMPANY LIMITED, priority 2021, published 2024)

Target: human activated kallikrein enzyme (Homo sapiens, UniProt P03952)
Assay: Plasma kallikrein inhibition, fluorogenic PFR-AMC substrate, 500 pM activated kallikrein format
Assay type: biochemical
Conditions: 500 pM activated kallikrein, 300 uM PFR-AMC, 30 min preincubation, 10 min reaction; read-out: Primary Dose Response Assay: Average EC50
Protocol: Compounds were evaluated for inhibition of the human activated kallikrein enzyme in two formats of an assay employing a fluorogenic peptide substrate. In one assay format, the concentrations of reagents were as follows: 20 mM Tris pH 7.5, 1 mM EDTA, 150 mM sodium chloride, 0.1% PEG-400, 0.1% Triton X-100, 500 pM activated kallikrein enzyme, 300 uM Pro-Phe-Arg-7-amido-4-methylcoumarin (PFR-AMC) substrate. Prior to reaction initiation with substrate, enzyme and inhibitors were preincubated for 30 min at room temperature. After initiation with substrate, reactions were incubated for 10 min at room temperature and fluorescence emission at 460 nm from 380 nm excitation measured with a microplate reader. In another assay format, the concentrations of reagents were as follows: 20 mM Tris pH 7.5, 1 mM EDTA, 150 mM sodium chloride, 0.1% PEG-400, 0.1% Triton X-100, 5 pM activated kallikrein enzyme, 300 uM PFR-AMC substrate. Prior to reaction initiation with substrate, enzyme and inhibitors were preincubated for 30 min at room temperature. After initiation with substrate, reactions were incubated for 18 hr at room temperature and fluorescence emission at 460 nm from 380 nm excitation measured with a microplate reader.
Table 49 provides the results of the assay in the format with 500 pM activated kallikrein assay. For the compounds listed in Table 49, the EC50 values are reported according to the following ranges: A≤1.0 nM; 1.0 nM<B≤10 nM; 10 nM<C≤100 nM; 100 nM<D≤1000 nM; 1000 nM<E≤6000 nM; 6000 nM<F.
Table 51 provides comparative plasma kallikrein inhibition potency in the assay format with 500 pM activated kallikrein assay (described in detail in a preceding example). For the compounds listed in Table 51, the EC50 values are reported according to the following ranges: A≤1.0 nM; 1.0 nM<B≤10 nM; 10 nM<C≤100 nM; 100 nM<D≤1000 nM; 1000 nM<E≤6000 nM; 6000 nM<F.

Chain of human activated kallikrein enzyme (P03952 391-638 limits assumed): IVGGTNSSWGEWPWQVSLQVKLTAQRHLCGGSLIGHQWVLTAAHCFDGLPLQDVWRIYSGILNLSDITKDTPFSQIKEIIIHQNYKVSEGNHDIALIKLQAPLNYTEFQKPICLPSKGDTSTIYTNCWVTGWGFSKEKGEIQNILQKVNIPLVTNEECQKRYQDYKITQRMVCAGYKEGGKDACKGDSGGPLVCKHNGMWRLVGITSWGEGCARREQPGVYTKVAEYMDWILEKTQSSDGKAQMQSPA
Chain of human activated kallikrein enzyme (P03952 20-390 partner limits assumed): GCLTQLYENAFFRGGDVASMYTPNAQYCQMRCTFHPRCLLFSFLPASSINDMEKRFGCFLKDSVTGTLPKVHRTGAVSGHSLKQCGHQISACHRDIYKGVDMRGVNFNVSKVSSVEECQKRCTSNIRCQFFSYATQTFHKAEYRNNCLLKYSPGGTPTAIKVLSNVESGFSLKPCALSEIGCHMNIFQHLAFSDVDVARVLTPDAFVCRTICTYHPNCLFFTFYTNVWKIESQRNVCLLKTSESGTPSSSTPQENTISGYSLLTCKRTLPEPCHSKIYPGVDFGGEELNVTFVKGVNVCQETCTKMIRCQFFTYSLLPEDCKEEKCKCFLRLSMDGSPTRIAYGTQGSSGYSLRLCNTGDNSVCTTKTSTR

| EC50 | Structure (SMILES) |
| --- | --- |
| 10 to 100 nM | O=C(Nc1cc(NCc2cn3cc(C4CC4)ccc3n2)ccn1)[C@H]1C[C@@H]1c1cc(Cl)ccn1 (single isomer, unassigned) [Example I-269, rac-(1S*,2S*)-2-(4-chloropyridin-2-yl)-N-(4-(((6-cyclopropylimidazo[1,2-a]pyridin-2-yl)methyl)amino)pyridin-2-yl)cyclopropane-1-carboxamide] |
| 10 to 100 nM | Cc1ccnc([C@H]2C[C@@H]2C(=O)Nc2cccc(SCc3cn4cc(C5CC5)cc(N5CC(=O)N(C)C5=O)c4n3)c2)n1 [Example I-645, (1S,2S)—N-(3-(((6-cyclopropyl-8-(3-methyl-2,4-dioxoimidazolidin-1-yl)imidazo[1,2-a]pyridin-2-yl)methyl)thio)phenyl)-2-(4-methylpyrimidin-2-yl)cyclopropane-1-carboxamide] |
| > 6000 nM | CC(C)(C)OC(=O)Nc1ccc([C@H]2C[C@@H]2C(=O)Nc2cc(NCc3cn4cc(C5CC5)ccc4n3)ncn2)cc1Cl (racemic) [Example I-188, rac-tert-butyl (2-chloro-4-((1S*,2S*)-2-((6-(((6-cyclopropylimidazo[1,2-a]pyridin-2-yl)methyl)amino)pyrimidin-4-yl)carbamoyl)cyclopropyl)phenyl)carbamate] |
| 10 to 100 nM | O=C(Nc1cc(NCc2cn3cc(C4CC4)ccc3n2)ncn1)[C@H]1[C@H](CO)[C@@H]1c1cccc(Cl)c1 (racemic) [Example I-180, rac-(1R*,2S*,3R*)-2-(3-chlorophenyl)-N-(6-(((6-cyclopropylimidazo[1,2-a]pyridin-2-yl)methyl)amino)pyrimidin-4-yl)-3-(hydroxymethyl)cyclopropane-1-carboxamide] |
| < 1 nM | Cc1ccnc([C@H]2C[C@@H]2C(=O)Nc2cc(CCc3cn4cc(C5CC5)cc(N5CC(=O)N(C)C5=O)c4n3)ccn2)n1 [Example I-653, (1S,2S)—N-(4-(2-(6-cyclopropyl-8-(3-methyl-2,4-dioxoimidazolidin-1-yl)imidazo[1,2-a]pyridin-2-yl)ethyl)pyridin-2-yl)-2-(4-methylpyrimidin-2-yl)cyclopropane-1-carboxamide] |
| > 6000 nM | COc1cc([C@H]2C[C@@H]2C(=O)Nc2cc(NCc3cn4cc(C5CC5)ccc4n3)ccn2)cc(NC(=O)OC(C)(C)C)n1 (racemic) [Example I-216, rac-tert-butyl (4-((1S*,2S*)-2-((4-(((6-cyclopropylimidazo[1,2-a]pyridin-2-yl)methyl)amino)pyridin-2-yl)carbamoyl)cyclopropyl)-6-methoxypyridin-2-yl)carbamate] |

Further lines, the molecule ahead of its results:

| Structure (SMILES) | EC50 |
| --- | --- |
| Cc1ccnc([C@H]2C[C@@H]2C(=O)Nc2cc(N[C@H](C)c3cn4cc(C5CC5)cc(N5CCN(C)C5=O)c4n3)ncn2)n1 [Example 536, (1S,2S)-N-(6-(((R)-1-(6-cyclopropyl-8-(3-methyl-2-oxoimidazolidin-1-yl)imidazo[1,2-a]pyridin-2-yl)ethyl)amino)pyrimidin-4-yl)-2-(4-methylpyrimidin-2-yl)cyclopropane-1-carboxamide] | < 1 nM |
| Nc1cc(C2CC2)cn2cc(CNc3cc(NC(=O)[C@H]4C[C@@H]4c4cccc(Cl)c4)ncn3)nc12 [Example 308, (1S,2S)—N-(6-(((8-amino-6-cyclopropylimidazo[1,2-a]pyridin-2-yl)methyl)amino)pyrimidin-4-yl)-2-(3-chlorophenyl)cyclopropane-1-carboxamide] | 1 to 10 nM |
| CS(=O)(=O)c1nc(NCc2cn3cc(C4CC4)ccc3n2)cc(NC(=O)[C@H]2C[C@@H]2c2cccc(Cl)c2)n1 (racemic) [Example 110, rac-(1S*,2S*)-2-(3-chlorophenyl)-N-(6-(((6-cyclopropylimidazo[1,2-a]pyridin-2-yl)methyl)amino)-2-(methylsulfonyl)pyrimidin-4-yl)cyclopropane-1-carboxamide] | 10 to 100 nM |
| O=C(Nc1cc(NCc2cn3cc(C4CC4)ccc3n2)c(F)cn1)[C@H]1C[C@@H]1c1cccc(Cl)c1 (racemic) [Example 86, rac-(1S*,2S*)-2-(3-chlorophenyl)-N-(4-(((6-cyclopropylimidazo[1,2-a]pyridin-2-yl)methyl)amino)-5-fluoropyridin-2-yl)cyclopropane-1-carboxamide] | 100 to 1000 nM |
| Cc1ccnc([C@@H]2C[C@H]2C(=O)Nc2cc(NCc3cn4cc(C5CC5)cc(S(C)(=O)=O)c4n3)ncn2)n1 (single isomer, unassigned) [Example 323] | 10 to 100 nM |
| Cc1ccnc([C@H]2C[C@@H]2C(=O)Nc2cc(N[C@@H](C)c3cn4cc(C5CC5)cc(N5CC(=O)N(C)C5=O)c4n3)ncn2)n1 (single isomer, unassigned) [Example 452] | 10 to 100 nM |
| NC(=O)c1cc(C2CC2)cn2cc(CNc3cc(NC(=O)[C@H]4C[C@@H]4c4cccc(Cl)c4)ncn3)nc12 [Example 302, 2-(((6-((1S,2S)-2-(3-chlorophenyl)cyclopropane-1-carboxamido)pyrimidin-4-yl)amino)methyl)-6-cyclopropylimidazo[1,2-a]pyridine-8-carboxamide] | 1 to 10 nM |
| Cc1ccnc([C@H]2C[C@@H]2C(=O)Nc2cc(N[C@H](C)c3cn4cc(C5CC5)cc(N5CC(=O)N(C)C5=O)c4n3)nc(N(C)C)n2)n1 [Example 441, (1S,2S)-N-(6-(((R)-1-(6-cyclopropyl-8-(3-methyl-2,4-dioxoimidazolidin-1-yl)imidazo[1,2-a]pyridin-2-yl)ethyl)amino)-2-(dimethylamino)pyrimidin-4-yl)-2-(4-methylpyrimidin-2-yl)cyclopropane-1-carboxamide] | < 1 nM |
| N[C@H]1C[C@H](c2cn3cc(C4CC4)ccc3n2)N(c2cc(NC(=O)[C@H]3C[C@@H]3c3cccc(Cl)c3)ncn2)C1 [Example 297, (1S,2S)—N-(6-((2R,4S)-4-amino-2-(6-cyclopropylimidazo[1,2-a]pyridin-2-yl)pyrrolidin-1-yl)pyrimidin-4-yl)-2-(3-chlorophenyl)cyclopropane-1-carboxamide] | 1000 to 6000 nM |
| O=C(Nc1nccc2nn(Cc3cn4cc(C5CC5)ccc4n3)cc12)[C@H]1C[C@@H]1c1cc(Cl)ccc1[N+](=O)[O-] (racemic) [Example 578, rac-(1S*,2S*)-2-(5-chloro-2-nitrophenyl)-N-(2-((6-cyclopropylimidazo[1,2-a]pyridin-2-yl)methyl)-2H-pyrazolo[4,3-c]pyridin-4-yl)cyclopropane-1-carboxamide] | 1 to 10 nM |
| Cc1ccnc([C@H]2C[C@@H]2C(=O)Nc2cc(CCc3cn4cc(C5CC5)cc(N5CC(=O)N(C)C5=O)c4n3)cnn2)n1 [Example 667, (1S,2S)—N-(5-(2-(6-cyclopropyl-8-(3-methyl-2,4-dioxoimidazolidin-1-yl)imidazo[1,2-a]pyridin-2-yl)ethyl)pyridazin-3-yl)-2-(4-methylpyrimidin-2-yl)cyclopropane-1-carboxamide] | < 1 nM |
| O=C(Nc1cc(NCc2cn3cc(C4CC4)cc(CN4CCOCC4)c3n2)ncn1)[C@H]1C[C@@H]1c1cccc(Cl)c1 (racemic) [Example 73, rac-(1S*,2S*)-2-(3-chlorophenyl)-N-(6-(((6-cyclopropyl-8-(morpholinomethyl)imidazo[1,2-a]pyridin-2-yl)methyl)amino)pyrimidin-4-yl)cyclopropane-1-carboxamide] | 1 to 10 nM |
| CC1CCC(=O)N1c1cc(C2CC2)cn2cc(CNc3ccnc(NC(=O)[C@H]4C[C@@H]4c4cccc(Cl)c4)c3)nc12 (mixture of isomers) [Example 89, (1S,2S)-2-(3-chlorophenyl)-N-(4-(((6-cyclopropyl-8-(2-methyl-5-oxopyrrolidin-1-yl)imidazo[1,2-a]pyridin-2-yl)methyl)amino)pyridin-2-yl)cyclopropane-1-carboxamide] | < 1 nM |
| Cc1cc2nn(Cc3cn4cc(C5CC5)ccc4n3)cc2c(NC(=O)[C@H]2C[C@@H]2c2cccc(Cl)c2)n1 [Example 581, (1S,2S)-2-(3-chlorophenyl)-N-(2-((6-cyclopropylimidazo[1,2-a]pyridin-2-yl)methyl)-6-methyl-2H-pyrazolo[4,3-c]pyridin-4-yl)cyclopropane-1-carboxamide] | 1 to 10 nM |
| Cc1ccnc([C@H]2C[C@@H]2C(=O)Nc2cc(O[C@H](C)c3cn4cc(C5CC5)cc(N5CC(=O)N(C)C5=O)c4n3)cnn2)n1 (single isomer, unassigned) [Example 42] | < 1 nM |
| Cc1ccnc([C@H]2C[C@@H]2C(=O)Nc2cc(OCc3cn4cc(C5(F)CC5)cc(N5CC(=O)N(C)C5=O)c4n3)cnn2)n1 [Example 676, (1S,2S)—N-(5-((6-(1-fluorocyclopropyl)-8-(3-methyl-2,4-dioxoimidazolidin-1-yl)imidazo[1,2-a]pyridin-2-yl)methoxy)pyridazin-3-yl)-2-(4-methylpyrimidin-2-yl)cyclopropane-1-carboxamide] | < 1 nM |
